Data on 14 compounds can be found in patent publication US12568969B2, “Pyridine compounds for controlling invertebrate pests” (FMC Corporation, priority 2020, dated 2026).

Molecules are shown by their SMILES.

Assay type in all cases: in vivo
The subject of experiment [1] is diamondback moth (Plutella xylostella (L.)). Briefly: Test A: control of diamondback moth on mustard plant, spray. Particulars: sprayed at 250 ppm; assessed after 6 days.
Experiment [2] relates to Western Flower Thrips (Frankliniellla occidentalis (Pergande)). Nature of the experiment: Test G: control of Western Flower Thrips on Soleil bean plant, spray. Particulars: sprayed at 250 ppm; 6 days. As for the experimental part: (§1) Test compounds were formulated using a solution containing 10% acetone, […] and 300 ppm Activator 909 non-ionic surfactant (Loveland Products, Loveland, Colorado, USA). The formulated compounds were applied in 1 mL of liquid through an atomizer nozzle positioned 1.27 cm (0.5 inches) above the top of each test unit. Test compounds were sprayed at the rates indicated, and each test was replicated three times.
For evaluating control of the Western Flower Thrips (Frankliniellla occidentalis (Pergande)) through contact and/or systemic means, the test unit consisted of a small open container with a 5-7-day-old Soleil bean plant inside.
Test compounds were formulated and sprayed at 250 ppm. After spraying, the test units were allowed to dry for 1 hour, and then about 60 thrips (adults and nymphs) were added to each unit. A black, screened cap was placed on top, and the test units were held for 6 days at 25° C. and 45-55% relative humidity. Each test unit was then visually assessed for plant damage and insect mortality.

For experiment [3], the system named is corn planthopper (Peregrinus maidis (Ashmead)). Nature of the experiment: whole plant or invertebrate. The note with it: Peregrinus maidis, 144 h, 6 days; for mortality at 50 ppm: sprayed at 50 ppm; for mortality at 250 ppm: sprayed at 250 ppm; for mortality at 10 ppm: sprayed at 10 ppm. In short, it runs like this:
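Corn plants 3-4 days old were sprayed at 250, 50 and/or 10 ppm in 10% acetone with 300 ppm non-ionic surfactant, three replicates, contact and/or systemic exposure. After 1 h drying, ~15-20 nymphs (18-to-21-day-old) were added; mortality assessed visually after 6 days at 22-24° C, 50-70% RH.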

In experiment [4] the test system is sweetpotato whitefly (Bemisia tabaci (Gennadius)). Nature of the experiment: Test F: control of sweetpotato whitefly on cotton plant, spray. The note with it: 312 h, 13 days; for mortality at 50 ppm: sprayed at 50 ppm; for mortality at 250 ppm: sprayed at 250 ppm. How it is done: as §1
For evaluating control of the sweetpotato whitefly (Bemisia tabaci (Gennadius)) through contact and/or systemic means, the test unit consisted of a small open container with a 12-14-day-old cotton plant inside. Prior to the spray application, both cotyledons were removed from the plant, leaving one true leaf for the assay. Adult whiteflies were allowed to lay eggs on the plant and then were removed from the test unit. Cotton plants infested with at least 15 eggs were submitted to the test for spraying.
Test compounds were formulated and sprayed at 250 and/or 50 ppm. After spraying, the test units were allowed to dry for 1 hour. The cylinders were then removed, and the units were taken to a growth chamber and held for 13 days at 28° C. and 50-70% relative humidity. Each test unit was then visually assessed for insect mortality.

In experiment [5] the test system is green peach aphid (Myzus persicae (Sulzer)). Nature of the experiment: Test D: control of green peach aphid on radish plant, spray. Particulars: Myzus persicae, 144 h, 6 days; for mortality at 250 ppm: sprayed at 250 ppm; for mortality at 50 ppm: sprayed at 50 ppm. In short, it runs like this: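 Radish plants (12-15 days old) pre-infested with 30-40 aphids, sprayed with compound in 10% acetone/water with 300 ppm non-ionic surfactant at 250 and/or 50 ppm, three replicates. Held 6 days at 19-21 °C, 50-70% relative humidity, then mortality scored visually.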

The subject of experiment [6] is cotton melon aphid (Aphis gossypii (Glover)). Briefly: whole plant or invertebrate. Particulars: Aphis gossypii, 144 h, 6 days; for mortality at 50 ppm: sprayed at 50 ppm; for mortality at 250 ppm: sprayed at 250 ppm. The essentials: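 Compounds were formulated in a solution of 10% acetone, […] and 300 ppm Activator 909 non-ionic surfactant and sprayed as 1 mL through an atomizer nozzle 1.27 cm (0.5 inches) above each test unit, with three replicates. Units were pre-infested with 30-40 aphids on leaf pieces via the cut-leaf method, soil covered with sand, then kept 6 days at 19° C. and 70% relative humidity before visual mortality scoring.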

Experiment [7] deals with potato leafhopper (Empoasca fabae (Harris)). Briefly: Test C: control of potato leafhopper on Soleil bean plant, spray. The note with it: Empoasca fabae, 144 h; sprayed at 250 ppm; 6 days. As for the experimental part: as §1
For evaluating control of potato leafhopper (Empoasca fabae (Harris)) through contact and/or systemic means, the test unit consisted of a small open container with a 5-6-day-old Soleil bean plant (primary leaves emerged) inside. White sand was added to the top of the soil, and one of the primary leaves was excised prior to application of the test compound.
[…] After spraying of the formulated test compound, the test units were allowed to dry for 1 hour before they were post-infested with 5 potato leafhoppers (18-to-21-day-old adults). A black, screened cap was placed on the top of the test unit, and the test units were held for 6 days in a growth chamber at 20° C. and 70% relative humidity. Each test unit was then visually assessed for insect mortality.

As for `FC(c1ccc(OC(F)(F)F)cc1)c1c(Br)cncc1-n1nc(Br)c(Br)n1` (racemic) [Compound 29], the “control efficacy (40% or less feeding damage and/or 100% mortality)” value in experiment [1] was “very good to excellent levels of control efficacy”. Also, the “control efficacy (30% or less plant damage and/or 100% mortality)” value in experiment [2] is “very good to excellent levels of control efficacy”.
Consider `Fc1cncc(-n2cccn2)c1C(F)c1ccc(SC(F)(F)F)cc1` (stereo not drawn) [Compound 1], for which the mortality at 50 ppm is ≥ 80% in experiment [3], ≥ 70% in experiment [4] and ≥ 80% in experiment [6]. Also, the mortality at 250 ppm in experiment [3] is ≥ 80%; in experiment [4] it was ≥ 70%; in experiment [5], ≥ 80%; in experiment [6], ≥ 80%. In experiment [1], the “control efficacy (40% or less feeding damage and/or 100% mortality)” value is “very good to excellent levels of control efficacy”. Further, the “control efficacy (30% or less plant damage and/or 100% mortality)” value in experiment [2] is recorded as “very good to excellent levels of control efficacy”.
`FC(c1ccc(OC(F)(F)F)cc1)c1ccncc1-n1nccn1` (stereo not drawn) [Compound 9]: the mortality at 250 ppm in experiment [7], in experiment [3] and in experiment [6] was ≥ 80% throughout. For the same compound, the mortality at 50 ppm in experiment [3] and in experiment [6] was ≥ 80% throughout.
As to `FC(c1ccc(OC(F)(F)F)cc1)c1ccncc1-n1cccn1` (stereo not drawn) [Compound 11], the mortality at 250 ppm in experiment [7], in experiment [3], in experiment [5] and in experiment [6] was ≥ 80% in each case. Besides, the mortality at 50 ppm in experiment [3] and in experiment [6] was ≥ 80% each time.
On to `FC(c1ccc(OC(F)(F)F)cc1)c1c(Cl)cncc1-n1nccn1` (stereo not drawn) [Compound 14], for which the mortality at 250 ppm was ≥ 80% in experiment [7]; ≥ 80% in experiment [3]; ≥ 70% in experiment [4]; ≥ 80% in experiment [5]; ≥ 80% in experiment [6]. For the same compound, the mortality at 50 ppm in experiment [3] is ≥ 80%; in experiment [4] it was ≥ 70%; in experiment [5] it was ≥ 80%; in experiment [6], ≥ 80%.
Take `Fc1cncc(-n2cccn2)c1C(F)c1ccc(C(F)(F)F)cc1` (stereo not drawn) [Compound 21]: the mortality at 250 ppm in experiment [7], in experiment [3], in experiment [5] and in experiment [6] was ≥ 80% throughout. The mortality at 50 ppm in experiment [3], in experiment [5] and in experiment [6] was ≥ 80% throughout. Besides, the “control efficacy (40% or less feeding damage and/or 100% mortality)” value in experiment [1] was “very good to excellent levels of control efficacy”.
With `Fc1cncc(-c2ncco2)c1C(F)c1ccc(OC(F)(F)F)cc1` (stereo not drawn) [Compound 32], the mortality at 250 ppm in experiment [7], in experiment [3] and in experiment [6] was ≥ 80% in each case. In experiment [3], the mortality at 10 ppm was ≥ 80%. Moreover, the mortality at 50 ppm in experiment [3] and in experiment [6] was ≥ 80% each time. Besides, the “control efficacy (40% or less feeding damage and/or 100% mortality)” value in experiment [1] is “very good to excellent levels of control efficacy”. For the same compound, the “control efficacy (30% or less plant damage and/or 100% mortality)” value in experiment [2] is listed as “very good to excellent levels of control efficacy”.
`Fc1cncc(-c2nccs2)c1C(F)c1ccc(OC(F)(F)F)cc1` (stereo not drawn) [Compound 33]: the mortality at 250 ppm in experiment [7] is ≥ 80%. Moreover, in experiment [3], the mortality at 10 ppm is ≥ 80%, the mortality at 50 ppm is ≥ 80% and the mortality at 250 ppm was ≥ 80%. Moreover, the “control efficacy (40% or less feeding damage and/or 100% mortality)” value in experiment [1] was “very good to excellent levels of control efficacy”. Besides, in experiment [2], the “control efficacy (30% or less plant damage and/or 100% mortality)” value is recorded as “very good to excellent levels of control efficacy”. Further, in experiment [6], the mortality at 50 ppm was ≥ 80% and the mortality at 250 ppm was ≥ 80%.
As to `Fc1cncc(-c2nccs2)c1C(F)c1ccc(OC(F)(F)F)cc1` (stereo not drawn) [Compound 36], the mortality at 250 ppm is ≥ 70% in experiment [4] and ≥ 80% in experiment [5]. Besides, the “control efficacy (40% or less feeding damage and/or 100% mortality)” value in experiment [1] is given as “very good to excellent levels of control efficacy”. Besides, the “control efficacy (30% or less plant damage and/or 100% mortality)” value in experiment [2] was “very good to excellent levels of control efficacy”.
As for `COC(c1ccc(OC(F)(F)F)cc1)c1c(F)cncc1-n1cccn1` (stereo not drawn) [Compound 37], the mortality at 250 ppm in experiment [7] was ≥ 80%; in experiment [3], ≥ 80%; in experiment [4], ≥ 70%; in experiment [5] it was ≥ 80%; in experiment [6] it was ≥ 80%. In addition, the mortality at 50 ppm in experiment [3] and in experiment [6] was ≥ 80% in each case.
`Fc1cncc(-c2ccno2)c1C(F)c1ccc(OC(F)(F)F)cc1` (stereo not drawn) [Compound 41]: in experiment [3], the mortality at 10 ppm was ≥ 80% and the mortality at 50 ppm is ≥ 80%. Moreover, the “control efficacy (30% or less plant damage and/or 100% mortality)” value in experiment [2] is “very good to excellent levels of control efficacy”. The mortality at 250 ppm in experiment [6] is ≥ 80%.
Consider `FC(c1ccc(OC(F)(F)F)cc1)c1c(Cl)cncc1-c1nccs1` (stereo not drawn) [Compound 50], for which, in experiment [3], the mortality at 10 ppm is ≥ 80% and the mortality at 50 ppm was ≥ 80%. In experiment [1], the “control efficacy (40% or less feeding damage and/or 100% mortality)” value is given as “very good to excellent levels of control efficacy”. Moreover, the “control efficacy (30% or less plant damage and/or 100% mortality)” value in experiment [2] is listed as “very good to excellent levels of control efficacy”. Besides, in experiment [6], the mortality at 50 ppm is ≥ 80% and the mortality at 250 ppm was ≥ 80%.
Take `FC(c1ccc(SC(F)(F)F)cc1)c1ccncc1-n1nccn1` (stereo not drawn) [Compound 69]: the mortality at 250 ppm in experiment [7] was ≥ 80%; in experiment [3], ≥ 80%; in experiment [4], ≥ 70%; in experiment [5] it was ≥ 80%; in experiment [6], ≥ 80%. Further, the mortality at 10 ppm in experiment [3] was ≥ 80%. Besides, the mortality at 50 ppm is ≥ 80% in experiment [3], ≥ 70% in experiment [4], ≥ 80% in experiment [5] and ≥ 80% in experiment [6].
Regarding `CO[C@H](c1ccc(OC(F)(F)F)cc1)c1c(F)cncc1-n1nccn1` [Compound 125, 3-fluoro-4-[(R)-methoxy-[4-(trifluoromethoxy)phenyl]methyl]-5-(triazol-2 yl)pyridine], the mortality at 10 ppm in experiment [3] is ≥ 80%. Further, the mortality at 50 ppm in experiment [3] is ≥ 80%; in experiment [4], ≥ 70%; in experiment [5], ≥ 80%; in experiment [6] it was ≥ 80%. The mortality at 250 ppm was ≥ 80% in experiment [3], ≥ 70% in experiment [4], ≥ 80% in experiment [5] and ≥ 80% in experiment [6]. For the same compound, in experiment [1], the “control efficacy (40% or less feeding damage and/or 100% mortality)” value is “very good to excellent levels of control efficacy”.

The mortality is the percentage killed. Lower therefore signals a weak lethal effect.
